Where two headings read alike, the source gives them in different places.
How the values were obtained:
[1] = tested on: AEA uptake in U937 cells; experiment: AEA uptake inhibition in U937 cells; type: cell-based; conditions: for IC50 / IC50 for AEA uptake inhibition: U937 cells
Experimental: Based on the natural product (2E,4E)-N-isobutylamidedodeca-2,4-dienamide from the medicinal plant E. purpurea as a starting point, a library of 634 of analogs and derivatives with varying alkyl chain length was synthesized, and structure of the head group moiety analyzed. All new derivatives were tested for AEA uptake inhibition in U937 cells using a high-content screening assay.
(§1) All radioactivity-based AEA and 2-AG uptake and release assays performed in U937, and HMC-1 cells were carried out using two different assay formats as previously reported. AEA and 2-AG uptake assay in Neuro2a and primary mouse cortical neurons were performed with a different method disclosed in Chicca 2017.

[2] = 14C-WOBE437 saturation binding to U937 membranes; conditions: for competition with 14C-WOBE437 binding: brain and U937 membranes
Experimental: (§2) In addition to their effects on AEA uptake, the inhibition of FAAH was thoroughly investigated for all nanomolar inhibitors. […] The lack of significant FAAH inhibition by WOBE437 was established in different assay systems using human recombinant enzyme, cell and brain homogenates. […] Importantly, WOBE437 (1 μM) inhibited AEA uptake also in primary mouse cortical neurons by 50% after 2-7 min of incubation with a smaller inhibition (20-35%) upon longer incubation (10-20 min, FIG. 1F). […] In Neuro2a cells, incubation with WOBE437 (5 μM) for 2 and 5 min reduced overall uptake by 40%. (FIG. 1G). […] Then cells were treated with radiolabeled ^14C-WOBE437 to investigate the cellular penetration of the compound. In U937 cells, the vast majority of the radioactive signal was collected in the extracellular and membrane-bound fractions (75-90%), with negligible amounts (5-9%) detected in the intracellular fraction (FIGS. 2A-D). […] In order to further investigate this point, ^14C-WOBE437 was applied to membrane preparations generated in-house from mouse brain and U937 cells. […] The Kd values are in line with the IC50 values shown in the functional AEA uptake assays in Neuro2a and U937 cells (FIGS. 1C and 1D). In further experiments, 10 nM of ^14C-WOBE437 was co-incubated with different concentrations of AEA and U937 membranes. […] Furthermore, the endocannabinoids AEA and noladin ether and the AEA uptake inhibitor OMDM-2 could compete with ^14C-WOBE437 binding in brain and U937 membranes. […] Secondary plots of the slope (Kmapp/Vmaxapp vs. [WOBE437]) and intercept (1/Vmaxapp vs. [WOBE437]) confirmed the competitive inhibition of AEA uptake.

[3] = tested on: main EC degrading enzymes (FAAH, MAGL); conditions: cited from earlier work
[4] = tested on: C57BL6/J mice; conditions: repeated administrations; cited from earlier work
[5] = tested on: CB1 receptors; conditions: repeated administrations; cited from earlier work
[6] = tested on: 2-AG uptake in Neuro2a cells; experiment: 2-AG uptake and hydrolysis in Neuro2a cells; type: cell-based, mouse; conditions: Neuro2a cells, time course
Experimental: as §1

[7] = tested on: U937 cells; experiment: Localization of 14C-WOBE437 in cellular fractions of U937 cells; type: cell-based
Experimental: FIGS. 2A-D: Different initial amounts of ^14C-WOBE437 were incubated for 15 min with 1×10^6 of U937 cells at 37° C. Afterwards, cells were centrifuged and the ^14C-signal was measured from the extracellular (light grey), membrane-bound (dark grey) and intracellular (white) fraction. The results are reported in absolute amounts and as percentage of the initial amount.
The cell penetration and tissue distribution of ^14C-WOBE437 was assessed in U937 cells and C57BL6/N mice as described in Chicca 2017.

[8] = 14C-WOBE437 saturation binding to mouse brain membranes; conditions: mouse brain membranes
Experimental: as §2

[9] = LC-MS/MS quantification of WOBE437 in tissues after i.p. injection; type: in vivo, mouse; conditions: 10 mg/kg i.p., C57BL6/N mice, after 1 h

Q: Which IC50 ([1]; 100 nM total AEA) does the source give for `CCCCCCC/C=C/C=C/C(=O)NCCc1cccnc1` [2-(pyridin-3-yl)]ethyl] here?
A: 101 nM

Q: What about the “IC50 for AEA uptake inhibition” value ([1]; 100 nM total AEA) of the same compound?
A: nanomolar range

Q: Which IC50 [1] does the source give for `CCCCCCC/C=C/C=C/C(=O)NCCO` [(2E,4E)-dodecadienoyl ethanolamine] here?
A: 3470 nM

Q: With `CCCCC/C=C\C/C=C\C/C=C\C/C=C\CCCC(=O)NCCO` [AEA, N-arachidonoylethanolamine] as the compound, how does the “effect on 14C-WOBE437 binding curve” value ([2]; 10 nM 14C-WOBE437 co-incubated with increasing AEA) read?
A: increase of Kd values, while not significantly modifying Bmax values

Q: And the “competition with 14C-WOBE437 binding” value [2]?
A: could compete

Q: For `CCCCC/C=C\C/C=C\C/C=C\C/C=C\CCCC(=O)Nc1ccc(O)cc1` [AM404, N-(4-hydroxyphenyl)arachidonamide], which “substrate of FAAH or MAGL” value ([3]; h/rFAAH or hMAGL) is on record?
A: substrates for h/rFAAH or hMAGL

Q: For `O=C(Oc1ccc([N+](=O)[O-])cc1)N1CCC(C(O)(c2ccc3c(c2)OCO3)c2ccc3c(c2)OCO3)CC1` [JZL184], which “2-AG overflow relative to basal levels” value [4] is on record?
A: 10-12 times basal levels

Q: What about the “effect on CB1 receptors” value [5] of the same compound?
A: desensitize CB1 receptors

Q: And the “effect on 2-AG uptake and hydrolysis” value [6]?
A: specifically inhibited hydrolysis

Q: For `CCCCCCC/C=C/C=C/C(=O)NCCc1ccc2c(c1)OCCO2` [N-(2,3-dihydro-1,4-benzodioxin-6-yl)ethyl dodeca-2E,4E-dienamide], which “potency for AEA uptake relative to WOBE437 (times less potent)” value [1] is on record?
A: approximately 13 times

Q: And the “IC50 for AEA uptake inhibition” value ([1]; 100 nM total AEA)?
A: nanomolar range

Q: Which “competition with 14C-WOBE437 binding” value [2] does the source give for `CCCCCCCC/C=C\CCCCCCCC(=O)N[C@@H](CO)Cc1ccc(O)cc1` [OMDM-2] here?
A: could compete

Q: Which “substrate of FAAH or MAGL” value ([3]; h/rFAAH or hMAGL) does the source give for `CCCCC/C=C\C/C=C\C/C=C\C/C=C\CCCC(=O)NCc1ccoc1` [UCM707] here?
A: substrates for h/rFAAH or hMAGL

Q: For `CCCCC/C=C\C/C=C\C/C=C\C/C=C\CCCC(=O)Nc1ccc(O)cc1C` [VDM11, N-(2-methyl-4-hydroxy-phenyl)-arachidonamide], which “substrate of FAAH or MAGL” value [3] is on record?
A: substrates for h/rFAAH or hMAGL

Q: With `CN(Cc1cccc(-c2ccncc2)c1)C(=O)Oc1ccc(-c2ccc(C(N)=O)cc2)cc1` [WWL70, reference compound] as the compound, how does the “effect on 2-AG uptake and hydrolysis” value [6] read?
A: prevented 2-AG uptake and hydrolysis occurring at later time points

Q: For `CCCCCCC/C=C/C=C/C(=O)NCCc1ccc(OC)c(OC)c1` [^14C-WOBE437], which membrane-associated signal ([7]; 10 nM) is on record?
A: 9.8 % of total signal

Q: And the membrane-associated signal ([7]; 100 nM)?
A: 1.7 % of total signal

Q: What about the “cell-associated radioactive signal over time” value ([7]; 100 nM, 0-30 min) of the same compound?
A: approximately 10 % of total signal

Q: What about the membrane-associated signal ([7]; 1 μM) of the same compound?
A: 0.7 % of total signal

Q: And the membrane-associated signal ([7]; 10 μM)?
A: 0.7 % of total signal

Q: And the “radioactive signal in extracellular and membrane-bound fractions” value ([7]; U937 cells, 15 min, 37° C.)?
A: 75-90%

Q: What about the “radioactive signal in intracellular fraction” value ([7]; U937 cells, 15 min, 37° C.) of the same compound?
A: 5-9%

Q: What about the Bmax [8] of the same compound?
A: 18.2±1.5 fmol/mg protein

Q: What about the Kd ([8]; read-out: Kd) of the same compound?
A: 15.7 ± 2.8 nM

Q: And the Bmax ([2]; U937 membranes)?
A: 15.6±1.4 fmol/mg protein

Q: And the Kd ([2]; U937 membranes)?
A: 11.3 ± 2.4 nM

Q: And the “tissue distribution of 14C signal” value [9]?
A: highest ^14C signal was measured in adipose tissue

Q: Which “competition with 14C-WOBE437 binding” value [2] does the source give for `CCCCC/C=C\C/C=C\C/C=C\C/C=C\CCCCOC(CO)CO` [noladin ether] here?
A: could compete

Q: For `CCCCCCCC=CC=CC(=O)NCc1cccnc1` [pyridin-3-ylmethyl], which IC50 ([1]; 100 nM total AEA) is on record?
A: 2690 nM

Q: Which IC50 ([1]; 100 nM total AEA) does the source give for `CCCCCCCC=CC=CC(=O)NCCc1ccccc1` [unsubstituted parent compound] here?
A: 1140 nM

Q: Which “potency for AEA uptake relative to WOBE437 (times less potent)” value [1] does the source give for benzodioxole here?
A: approximately 13 times

From patent US10414721B1, “Inhibitor of endocannabinoid cellular reuptake” (University of Bern, priority 2018, dated 2019)
